One experiment concerns the target T1, GPR35a (Homo sapiens, UniProt Q9HC97, S294R).
Assay: not given
The note with it: 3 μM; data not shown.
Chain of GPR35 (Q9HC97 whole entry S294R): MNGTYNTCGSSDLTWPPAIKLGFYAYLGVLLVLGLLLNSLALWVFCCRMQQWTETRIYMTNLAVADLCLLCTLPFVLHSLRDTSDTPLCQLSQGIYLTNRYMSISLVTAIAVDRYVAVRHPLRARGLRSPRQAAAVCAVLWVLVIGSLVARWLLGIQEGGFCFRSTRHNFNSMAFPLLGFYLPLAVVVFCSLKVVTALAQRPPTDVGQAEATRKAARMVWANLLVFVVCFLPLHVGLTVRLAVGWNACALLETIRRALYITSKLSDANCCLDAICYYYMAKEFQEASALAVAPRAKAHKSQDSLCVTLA
T1 sequence (Q9HC97 whole entry S294R): as above
`N#CC(=C(N)Sc1ccccc1N)C(C#N)=C(N)Sc1ccccc1N` [Compound U0126, 1,4-diamino-2,3-dicyano-1,4-bis(2-aminophenylthio)-butadiene]: the “effect on ERK1/2 activation” value is “inhibited ERK1/2 activation” and the “effect on pamoic acid-induced ERK activation” value was “abolished pamoic acid-induced ERK activation”.

The next experiment has as its target GPR35 (Homo sapiens, UniProt Q9HC97, S294R).
Assay: not given
The conditions noted are these: UGPR35β cells.
Turning to pyrantel tartrate, the “activity in GPR35 internalization assay, in words” value was “inactive”.

The same experiment, now with this note: UGPR35β cells, On-Cell Western; log(EC50).
On to oxantel pamoate [Compound 2], for which the “log EC50 of GPR35 internalization” value is −7.772.

The experiment is the same for the next values; noted with them: read-out: EC50 of GPR35 internalization; UGPR35β cells, On-Cell Western; corresponds to the log EC50.
The EC50 is the midpoint of the concentration-response curve. As for oxantel pamoate [Compound 2], the 50% effective concentration (EC50) turned out to be 17 nM.

A further experiment concerns the target T1, GPR35a. Nature of the experiment: β-arrestin2-GFP redistribution/aggregation in UGPR35β cells. The format is cell-based. Set-up: expressed in transfected cells. The conditions noted are these: compared with the binaphthyl compounds. The source says:
This cellular assay utilizes the intracellular β-arrestin protein as a reporter of receptor activity. […] Upon agonist-mediated GPCR activation, β-arrestins rapidly redistribute en masse to ligand-activated plasma membrane receptors (on the other hand, β-arrestins remain in the cytosol upon antagonist binding to the receptor). Activated GPCR/β-arrestin complexes will concentrate in clathrin-coated pits and/or internal vesicles where most GPCRs normally undergo internalization. At this juncture, the β-arrestin either (i) dissociates and returns to the cytoplasm, or (ii) further redistributes with the receptor into an intracellular endosomal vesicle, depending on the receptor type. It is the agonist-induced redistribution of β-arrestin-GFP into progressively smaller compartments (cytosolic compartment>plasma membrane>coated pit>endosomal compartment) that enables imaging of receptor activation.
This cell line is herein referred to as UGPR35β. Selected cells were maintained at 200 μg/ml G418® and 100 μg/ml Zeocin® at 37° C. and 5% CO2.
U20S cells expressing HA-GPR35a/βarr2-GFP (also known as UGPR35β cells) were plated in a 24-well plate onto coverslips that were coated with poly-D-lysine (0.02 mg/ml; Sigma-Aldrich, St. Louis, Mo., USA) for 1 hour. Cells were maintained at 37° C., 5% CO2 until ready for experiment (90% confluent). Cells were washed once with Hanks' balanced salt solution (HBSS, Cellgro, Mediatech, Inc, Manassas, Va., USA) comprising CaCl2 0.14 g/L, KCl 0.4 g/L, KH2PO4 0.06 g/L, MgSO4 0.097 g/L, NaCl 8 g/L, Na2HPO4 0.047 g/L, NaHCO3 0.35 g/L, and D-glucose 1.0 g/L. For receptor activation, agonist-evoked redistribution of βarr2-GFP was measured by applying the drug for 40 minutes. For measuring the effects of antagonist, agonist and antagonist were co-applied.
Cells were then fixed with 4% paraformaldehyde for 20 minutes at room temperature, followed by three washes with HBSS.
βarr2-GFP aggregates were identified by a wavelet-based, Microsoft Windows-compatible computer program written in the MatLab programming environment. A program algorithm extracts from two dimensional images those pixels that generate objects of interest that fall within a predetermined range of sizes and intensities and that are embedded among widely varying local backgrounds (L. Barak, available from the Duke University GPCR Assay Bank). Concentration-effect curves for agonist-mediated receptor activation were analyzed by non-linear regression techniques using GraphPad Prism 4.0 software (GraphPad) and data were fitted to sigmoidal dose-response curves to obtain EC50 or IC50 values. Statistical analysis was performed using one-way analysis of variance (ANOVA) followed by Dunnett's post-test or two-tailed unpaired student t test. P values of <0.05 are considered significant.
A prototypical U2OS osteosarcoma cell line that permanently expresses β-arrestin-GFP and N-terminal triple HA-tagged human GPR35a was used to screen ligands for agonism or antagonism against the GPR35 receptor. […] Endogenous receptors are invisible to the assay because there are too few endogenous receptors of any type compared to the number of β-arrestin molecules in the cell to provide a measurable response.
Upon agonist-mediated GPCR activation, β-arrestins rapidly redistribute en masse to ligand-activated plasma membrane receptors, and then the activated GPCR/arrestin complexes concentrate in clathrincoated pits and/or internal vesicles.
Concentration response curves for β-arrestin2 aggregation were obtained for compounds of interest. For this study, UGPR35β cells were treated with different concentrations of a compound of interest and images of the cells (acquired in triplicate in three or more independent experiments) were analyzed for fluorescence.
Consider `O=C(O)c1cc2ccccc2cc1O` [Compound 8, 3-hydroxy-2-naphthoic acid], for which the “potency as GPR35 agonist, in words” value was “much less potent”. Turning to `O=C(O)c1cc2cc(Br)ccc2cc1O` [Compound 7, 7-bromo-3-hydroxy-2-naphthoic acid], the “potency as GPR35 agonist, in words” value was “much less potent”.

Still in this experiment, the particulars now being: concentration response analysis, read-out: β-arrestin response (EC50).
As to `O=C(O)c1cc2ccccc2cc1O` [Compound 8, 3-hydroxy-2-naphthoic acid], the EC50 is 86000 nM. Still for that read-out and setting: the figure for `O=C(O)c1cc2ccccc2c(-c2c(O)c(C(=O)O)cc3ccccc23)c1O` [Compound 4, 1,1′-binaphthyl-2,2′-diol-3,3′-dicarboxylic acid] is 286 nM; for oxantel pamoate [Compound 2] it is 91 nM; for `O=C(O)c1cc2cc(Br)ccc2c(Cc2c(O)c(C(=O)O)cc3cc(Br)ccc23)c1O` [Compound 3, 7,7′-dibromo-pamoic acid] it is 169 nM. The same measure, in the same setting: the result for `O=C(O)c1cc2cc(Br)ccc2cc1O` [Compound 7, 7-bromo-3-hydroxy-2-naphthoic acid] reads 6900 nM.

The experiment is the same for the next values; noted with them: concentrations up to 30 μM.
As for `CCCCCc1cc(O)c2c(c1)OC(C)(C)[C@@H]1CCC(C)=C[C@@H]21` [delta-9-tetrahydrocannabinol], the “activation of GPR35 (distribution of βarr2-GFP different from basal state)” value was “None of the compounds at concentrations up to 30 μM activated GPR35”. With `CCCCCCC(C)(C)c1ccc([C@@H]2C[C@H](O)CC[C@H]2CCCO)c(O)c1` [CP55,940, 2-[(1R,2R,5R)-5-hydroxy-2-(3-hydroxypropyl)cyclohexyl]-5-(2-methyloctan-2-yl)phenol], the “activation of GPR35 (distribution of βarr2-GFP different from basal state)” value is listed as “None of the compounds at concentrations up to 30 μM activated GPR35”. Regarding `Cc1c(C(=O)c2cccc3ccccc23)c2cccc3c2n1[C@H](CN1CCOCC1)CO3` [WIN55212-2, (R)-(+)-[2,3-dihydro-5-methyl-3-(4-morpholinylmethyl)pyrrolo[1,2,3-de)-1,4-benzoxazin-6-yl]-1-napthalenylmethanone], the “activation of GPR35 (distribution of βarr2-GFP different from basal state)” value is given as “None of the compounds at concentrations up to 30 μM activated GPR35”.

As to `CCCCCc1cc(O)c2c(c1)OC(C)(C)c1ccc(C)cc1-2` [cannabinol], the “activation of GPR35 (distribution of βarr2-GFP different from basal state)” value was “None of the compounds at concentrations up to 30 μM activated GPR35”. Still for that read-out and setting: the entry for `Cc1c(/C=C/C2CCCCC2)nn(-c2ccc(Cl)cc2Cl)c1-c1ccc(Cl)cc1` [VCHSR1, 5-(4-chlorophenyl)-3-[(E)-2-cyclohexylethenyl]-1-(2,4-dichlorophenyl)-4-methyl-1H-pyrazole] is “None of the compounds at concentrations up to 30 μM activated GPR35”. Same read-out and setting: the entry for lysophosphatidic acid is “None of the compounds at concentrations up to 30 μM activated GPR35”. Regarding `Cc1c(/C=N/N2CCCCC2)nn(-c2ccc(Cl)cc2Cl)c1-c1ccc(Cl)cc1` [PIMSR1, 5-(4-chlorophenyl)-1-(2,4-dichlorophenyl)-4-methyl-3-[(E)-piperidinoiminomethyl]-1H-pyrazole], the “activation of GPR35 (distribution of βarr2-GFP different from basal state)” value is “None of the compounds at concentrations up to 30 μM activated GPR35”. Still for that read-out and setting: the result for lysophosphatidylinositol reads “None of the compounds at concentrations up to 30 μM activated GPR35”.

`CCCCCCC(C)(C)c1cc(O)c2c(c1)OC(C)(C)[C@@H]1CC=C(CO)C[C@@H]21` [HU-210, (6aR,10aR)-9-(hydroxymethyl)-6,6-dimethyl-3-(2-methyloctan-2-yl)-6a,7,10,10a-tetrahydrobenzo[c]chromen-1-ol]: the “activation of GPR35 (distribution of βarr2-GFP different from basal state)” value is “None of the compounds at concentrations up to 30 μM activated GPR35”. For the compound `CCCCCCC(C)(C)c1cc(O)c2c(c1)OC(C)(C)C1CCC(C)CC21` (stereo not shown) [AM4056, 1-hydroxy-1′,1′-dimethylheptylhexahydrocannabinol], the “activation of GPR35 (distribution of βarr2-GFP different from basal state)” value was “None of the compounds at concentrations up to 30 μM activated GPR35”. The same measure, in the same setting: the entry for “5-(4-chloro-3-methylphenyl-1-[(4-methylphenyl)methyl]-N-[(1S,2S,4R)-1,3,3-trimethylbicyclo[2.2.1]hept-2-yl]-1H-pyrazole-3-carboxamide [SR144528]” is “None of the compounds at concentrations up to 30 μM activated GPR35”; for `CCCn1c(C)c(C(=O)c2cccc3ccccc23)c2ccccc21` [JWH-015, (2-methyl-1-propyl-1H-indol-3-yl)-1-naphthalenylmethanone] it is “None of the compounds at concentrations up to 30 μM activated GPR35”; for `C=C(C)[C@@H]1CCC(C)=C[C@H]1c1c(C)cc(O)cc1O` [Compound O-1602, 5-methyl-4-[(1R,6R)-3-methyl-6-(1-methyethenyl)-2-cyclohexen-1-yl]-1,3-benzenediol] it is “None of the compounds at concentrations up to 30 μM activated GPR35”. Still for that read-out and setting: the entry for `C=C(C)[C@@H]1CCC(C)=C[C@H]1c1c(O)cc(CCCCC)cc1O` [cannabidiol] is “None of the compounds at concentrations up to 30 μM activated GPR35”; for `CCCCC/C=C\C/C=C\C/C=C\C/C=C\CCCC(=O)NCCO` [anandamide] it is “None of the compounds at concentrations up to 30 μM activated GPR35”.

The same experiment, now with this note: mean (95% confidence interval in brackets in the text), read-out: EC50 for β-arrestin2 aggregation.
On to `O=C(O)c1cc([N+](=O)[O-])ccc1NCCCc1ccccc1` [Compound 6, 5-Nitro-2-(3-phenylpropylamino)-benzoic acid], for which the EC50 is 4300 nM.
